From article PMC6934184, “Selective DNA-PKcs inhibition extends the therapeutic index of localized radiotherapy and chemotherapy” (The Journal of Clinical Investigation, 2019)

Molecular target: T1, PKN2 (PRK2) (Homo sapiens, UniProt Q16513)
T1 construct: purchased Thermo Fisher Scientific (Life Technologies) SelectScreen
Assay: SelectScreen LanthaScreen
Assay type: binding
Details: read-out: % displacement
Procedure: The in vitro kinase selectivity of NU5455 was determined using the SelectScreen Broad Assay Panel (Thermo Fisher Scientific) involving activity and binding assays (Supplemental Table 1). […] Class IA PI3Ks were measured using the p85α subunit.
Kinase [ATP] % Assay Kinase [ATP] % Assay Kinase [ATP] % Assay Kinase [ATP] % Assay
DNA-PK Km app 98.3 Z LATS2 n/a 4.7 L KIT D820E n/a 1.3 L GSK3B (GSK3 beta) Km app -2.5 Z
PIK3C3 (hVPS34) Km app 85.9 A PRKCZ (PKC zeta) Km app 4.7 Z GRK1 n/a 1.3 L BMPR2 n/a -2.5 L
PIK3C2B (PI3K-C2 beta) 10 28.9 A FGFR1 Km app 4.7 Z BRSK2 n/a 1.2 L CDC42 BPB (MRCKB) Km app -2.5 Z
SNF1LK2 Km app 26.6 Z MINK1 Km app 4.6 Z NUAK1 (ARK5) Km app 1.2 A AMPK (A2/B2/G2) n/a -2.6 L
HCK Km app 18.0 Z CSF1R (FMS) Km app 4.3 Z CDK9/cyclin K n/a 1.0 L PRKG1 Km app -2.7 Z
NEK2 Km app 17.8 Z CSNK1G3 (CK1 gamma 3) Km app 4.2 Z NUAK2 n/a 1.0 L KIT T670E n/a -2.8 L
ALK Km app 17.3 Z STK32C (YANK3) n/a 4.2 L CDK2/cyclin O n/a 0.9 L ERBB4 (HER4) Km app -2.8 Z
FGFR3 K650M n/a 16.5 L STK22D (TSSK1) Km app 4.2 Z CAMKK2 (CaMKK beta) n/a 0.9 L PLK4 n/a -2.8 L
SIK3 n/a 16.1 L TAOK3 (JIK) n/a 4.2 L FGFR3 Km app 0.9 Z GRK7 Km app -3.0 Z
LYN A Km app 15.2 Z RPS6KA4 (MSK2) Km app 4.2 Z ULK2 n/a 0.9 L MAPKAPK2 Km app -3.1 Z
BMPR1B (ALK6) n/a 14.5 L PTK2B (FAK2) Km app 4.2 Z KIT D816V n/a 0.9 L FGFR4 Km app -3.1 Z
INSRR (IRR) Km app 14.1 Z CLK2 Km app 4.1 Z CAMK1 (CaMK1) 10 0.8 A CASK n/a -3.1 L
PLK2 Km app 14.1 Z STK24 (MST3) Km app 4.1 Z PTK6 (Brk) Km app 0.7 Z GRK5 Km app -3.2 Z
PRKACA (PKA) Km app 14.0 Z CAMK1D (CaMKI delta) Km app 4.1 Z CAMK2B (CaMKII beta) Km app 0.7 Z EGFR (ErbB1) T790M Km app -3.3 Z
EIF2AK2 (PKR) n/a 13.3 L INSR Km app 4.1 Z ACVR1 (ALK2) n/a 0.7 L PAK4 Km app -3.3 Z
PRKX Km app 12.5 Z IRAK1 Km app 4.0 A ABL1 H396P n/a 0.6 L DAPK3 (ZIPK) Km app -3.4 Z
FGR Km app 12.1 Z SRC N1 Km app 3.9 Z MERTK (cMER) A708S n/a 0.6 L RET M918T n/a -3.5 L
CLK1 Km app 11.7 Z SRPK2 Km app 3.9 Z MAPKAPK5 (PRAK) Km app 0.6 Z PRKCQ (PKC theta) Km app -3.7 Z
MARK3 Km app 11.4 Z RPS6KA6 (RSK4) Km app 3.8 Z AKT1 (PKB alpha) Km app 0.5 Z CAMKK1 (CAMKKA) n/a -3.8 L
PDGFRB (PDGFR beta) Km app 11.0 Z GRK6 Km app 3.7 Z NTRK3 (TRKC) Km app 0.4 Z FLT3 D835Y Km app -3.9 Z
PRKCN (PKD3) Km app 10.7 Z PKN1 (PRK1) Km app 3.6 Z ZAP70 Km app 0.3 Z ROCK2 Km app -4.1 Z
STK16 (PKL12) n/a 10.5 L MAP3K8 (COT) 100 3.5 Z CSNK1A1 (CK1 alpha 1) Km app 0.3 Z CHUK (IKK alpha) Km app -4.2 A
FES (FPS) Km app 10.4 Z FLT4 (VEGFR3) Km app 3.5 Z MYLK (MLCK) n/a 0.2 L AXL Km app -4.2 Z
ABL1 Km app 10.4 Z GRK4 Km app 3.5 Z MKNK2 (MNK2) n/a 0.2 L PIM2 Km app -4.3 Z
MUSK Km app 10.3 Z FRK (PTK5) Km app 3.4 Z AMPK (A1/B1/G3) n/a 0.2 L PAK1 Km app -4.4 Z
MAPK1 (ERK2) Km app 10.1 Z FYN A n/a 3.3 L MAP3K2 (MEKK2) n/a 0.1 L BMPR1A (ALK3) n/a -4.4 L
BRAF 100 9.9 Z CDK1/cyclin A2 n/a 3.3 L CDK8/cyclin C n/a 0.1 L STK4 (MST1) Km app -4.4 Z
IGF1R Km app 9.7 Z KIT V559D T670I n/a 3.1 L MARK2 Km app 0.1 Z PRKCH (PKC eta) Km app -4.6 Z
MAPK14 (p38 alpha) Km app 9.7 Z SPHK2 10 3.1 A ICK n/a 0.0 L SGKL (SGK3) Km app -4.6 Z
LCK Km app 9.6 Z FGFR3 G697C n/a 3.1 L FGFR2 Km app 0.0 Z PI4KB (PI4K beta) Km app -4.7 A
MAPK11 (p38 beta) Km app 9.5 Z RIPK2 n/a 3.1 L AKT2 (PKB beta) Km app 0.0 Z PRKCE (PKC epsilon) Km app -4.9 Z
SRC Km app 9.5 Z PAK6 Km app 3.0 Z EPHB2 Km app -0.1 Z PHKG1 Km app -5.0 Z
CHEK1 (CHK1) Km app 9.3 Z LYN B Km app 3.0 Z TGFBR2 n/a -0.1 L PDGFRA D842V Km app -5.0 Z
CAMK2D (CaMKII delta) Km app 9.3 Z DAPK2 n/a 2.9 L TEK (Tie2) Km app -0.1 Z PRKG2 (PKG2) Km app -5.1 Z
PLK1 Km app 9.2 Z EPHA4 Km app 2.9 Z AURKA (Aurora A) Km app -0.1 Z TYRO3 (RSE) Km app -5.1 Z
RET Y791F Km app 9.2 Z PIK3CG (p110 gamma) Km app 2.9 A KIT D816H n/a -0.2 L TAOK2 (TAO1) Km app -5.1 Z
FLT3 Km app 9.1 Z HIPK1 (Myak) Km app 2.8 Z KIT N822K n/a -0.2 L EPHB4 Km app -5.3 Z
MAPK10 (JNK3) 100 9.0 Z ADRBK2 (GRK3) Km app 2.8 Z PRKACG (PRKAC gamma) n/a -0.2 L AURKC (Aurora C) Km app -5.4 Z
CSNK2A2 (CK2 alpha 2) Km app 8.7 Z STK17B (DRAK2) n/a 2.7 L TEK (TIE2) Y1108F n/a -0.3 L JAK1 Km app -5.7 Z […]

T1 sequence (Q16513 whole entry): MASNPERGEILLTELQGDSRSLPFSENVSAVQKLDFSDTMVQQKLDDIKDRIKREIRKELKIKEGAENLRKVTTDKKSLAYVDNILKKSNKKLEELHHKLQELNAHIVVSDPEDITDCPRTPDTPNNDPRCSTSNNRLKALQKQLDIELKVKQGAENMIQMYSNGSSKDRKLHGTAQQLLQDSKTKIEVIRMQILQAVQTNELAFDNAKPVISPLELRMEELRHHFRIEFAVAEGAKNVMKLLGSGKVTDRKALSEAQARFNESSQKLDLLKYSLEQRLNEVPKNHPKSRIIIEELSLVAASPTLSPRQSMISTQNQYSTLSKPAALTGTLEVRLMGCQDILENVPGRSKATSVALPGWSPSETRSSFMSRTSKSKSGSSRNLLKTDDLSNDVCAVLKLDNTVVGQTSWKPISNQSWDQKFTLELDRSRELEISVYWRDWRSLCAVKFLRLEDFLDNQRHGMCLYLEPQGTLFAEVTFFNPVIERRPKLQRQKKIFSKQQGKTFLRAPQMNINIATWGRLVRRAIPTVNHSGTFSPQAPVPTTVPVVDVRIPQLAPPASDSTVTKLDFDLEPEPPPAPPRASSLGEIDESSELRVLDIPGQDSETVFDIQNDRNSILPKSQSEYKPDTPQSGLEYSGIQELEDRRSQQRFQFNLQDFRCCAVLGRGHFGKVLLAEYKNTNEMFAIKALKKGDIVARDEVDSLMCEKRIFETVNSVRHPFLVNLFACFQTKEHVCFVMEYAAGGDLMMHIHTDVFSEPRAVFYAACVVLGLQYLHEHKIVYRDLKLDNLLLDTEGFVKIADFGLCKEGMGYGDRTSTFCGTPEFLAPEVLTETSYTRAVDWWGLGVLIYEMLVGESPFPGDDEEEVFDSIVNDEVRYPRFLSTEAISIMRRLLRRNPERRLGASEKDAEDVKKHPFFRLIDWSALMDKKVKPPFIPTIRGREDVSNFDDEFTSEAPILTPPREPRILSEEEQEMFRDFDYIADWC

With `CN(C(=O)CN1CCOCC1)c1ccc2sc3c(-c4cccc5c(=O)cc(N6CC7CCC(C6)O7)oc45)cccc3c2c1` [NU5455] the inhibition at 1 µM was -1%.
